Laboratory results taken from patent US6680322B2, “Compounds specific to adenosine A1 receptors and uses thereof” (OSI Pharmaceuticals, Inc., priority 1999, dated 2004).

Assays:
[1] = target: T1, human A1 adenosine receptor (Homo sapiens, UniProt P30542); conditions: cited from earlier work
T1 sequence (P30542 1-326): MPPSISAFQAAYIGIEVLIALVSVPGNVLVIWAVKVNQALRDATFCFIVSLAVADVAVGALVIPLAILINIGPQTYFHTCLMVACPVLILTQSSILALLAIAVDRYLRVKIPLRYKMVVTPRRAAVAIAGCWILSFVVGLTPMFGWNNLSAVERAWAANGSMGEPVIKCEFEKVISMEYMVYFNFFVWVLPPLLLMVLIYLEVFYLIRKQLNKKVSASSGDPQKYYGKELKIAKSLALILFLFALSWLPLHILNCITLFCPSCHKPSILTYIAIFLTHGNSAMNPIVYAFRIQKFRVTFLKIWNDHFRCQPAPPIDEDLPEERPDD

[2] = target: T2, human A2a receptor subtype (Homo sapiens, UniProt P29274); experiment: Adenosine 2a receptor subtype competition radioligand binding ([3H]CGS-21680, HEK293 membranes); conditions: Table 13; % activity @ 10 μM (footnote 8)
T2 construct: expressed in transfected cells; host or cells: HEK-293 (Cadus clone #5)
T2 sequence (P29274 whole entry): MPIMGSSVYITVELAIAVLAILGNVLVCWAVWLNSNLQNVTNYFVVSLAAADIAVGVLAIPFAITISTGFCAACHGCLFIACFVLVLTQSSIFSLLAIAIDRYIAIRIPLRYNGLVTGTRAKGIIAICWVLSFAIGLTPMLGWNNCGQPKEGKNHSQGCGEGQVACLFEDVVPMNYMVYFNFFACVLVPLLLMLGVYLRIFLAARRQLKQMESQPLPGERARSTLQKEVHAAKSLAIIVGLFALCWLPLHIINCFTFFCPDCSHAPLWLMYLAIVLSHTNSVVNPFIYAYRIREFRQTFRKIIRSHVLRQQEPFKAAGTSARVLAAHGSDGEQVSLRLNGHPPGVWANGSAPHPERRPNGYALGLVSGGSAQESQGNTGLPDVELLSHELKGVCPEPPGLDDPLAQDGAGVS

[3] = target: T3, human A1 receptor subtype (Homo sapiens, UniProt P30542)
T3 sequence (P30542 1-326): T1 sequence (P30542 1-326)

[4] = target: T4, human A3 receptor subtype (Homo sapiens, UniProt P0DMS8); experiment: Adenosine 3 receptor competition radioligand binding ([125I]AB-MECA, HEK293 membranes); conditions: Table 13; % activity @ 10 μM (footnote 8)
T4 construct: expressed in transfected cells; host or cells: HEK293
T4 sequence (P0DMS8 1-318): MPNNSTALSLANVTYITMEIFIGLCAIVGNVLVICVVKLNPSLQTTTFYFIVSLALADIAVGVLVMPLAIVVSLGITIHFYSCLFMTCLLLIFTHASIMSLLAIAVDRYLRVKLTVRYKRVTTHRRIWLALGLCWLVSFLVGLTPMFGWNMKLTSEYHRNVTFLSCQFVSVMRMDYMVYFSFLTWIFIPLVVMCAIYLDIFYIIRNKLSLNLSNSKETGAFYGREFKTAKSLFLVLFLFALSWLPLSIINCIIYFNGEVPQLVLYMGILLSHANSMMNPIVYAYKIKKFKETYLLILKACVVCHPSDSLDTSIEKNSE

Row | SMILES | melting point | further results
1 | CC(Cc1ccccc1)Nc1ncnc2c1ncn2[C@@H]1O[C@H](CO)[C@@H](O)[C@H]1O (single isomer, unassigned; (-)) [PIA, (−)-N6-(2-phenylisopropyl)-adenosine] |  | reported affinity [1]: approximately 50 nM
2 | CNC(=O)NCCCNc1nc(-c2ccccc2)nc2[nH]c(C)c(C)c12 [Compound 1310] |  | A2a binding, % activity [2]: 76%
3 | Cc1[nH]c2nc(-c3ccccc3)nc(NCCNC(=O)C3(N)CC3)c2c1C [Compound 1313] |  | A2a binding, % activity [2]: 65%; A1 binding, % activity ([3]; Table 13, % activity @ 10 μM (footnote 8)): 30%
4 | O[C@H]1CC[C@H](Nc2nc(-c3ccncc3)nc3[nH]ccc23)CC1 [Compound 1321] |  | A3 binding, % activity [4]: 54%^8
5 | O[C@H]1CC[C@H](Nc2nc(-c3ccccc3)nc3[nH]c(CN4CCOCC4)cc23)CC1 [Compound 1503] |  | Ki-A1 (selectivity versus A2a, A2b, A3) ([3]; Table 15): * (at least 10 times more selective than other three subtypes)
6 | NC(=O)[C@@H]1CCCN1c1nc(-c2ccccc2)nc2[nH]ccc12 [Compound 1602] | 236 to 238 °C | 
7 | COCc1cc2c(N3CCCC3C(N)=O)nc(-c3ccccc3)nc2[nH]1 (stereo not shown) [Compound 1605] | 213 to 215 °C | 
8 | NC(=O)[C@@H]1C[C@H](O)CN1c1nc(-c2ccccc2)nc2[nH]ccc12 [Compound 1606, 4-Hydroxy-1-(2-phenyl-7H-pyrrolo[2,3-d]pyrimidin-4-yl]-pyrrolidine-2-carboxylic Acid Amide] | 268 to 271 °C | 
9 | NC(=O)C1CCCN1c1nc(-c2ccccc2)nc2[nH]c(C(=O)O)cc12 (stereo not shown) [Compound 1619, [4-(2-Carbamoylpyrrolidin-1-yl)-2-phenyl-7H-pyrrolo[2,3-d]pyrimidine-6-carboxylic Acid]] | 220 °C (dec.) | 
10 | COC(=O)c1cc2c(NC3CCC(O)CC3)nc(-c3ccccc3)nc2[nH]1 (stereo not shown) [Compound 1627, 4-(4-Hydroxy-cyclohexylamino)-2-phenyl-7H-pyrrolo[2,3-d]pyrimidine-6-carboxylic Acid Methyl Ester] | 225 to 227 °C | 
11 | NC(=O)c1cc2c(NC3CCC(O)CC3)nc(-c3ccccc3)nc2[nH]1 (stereo not shown) [Compound 1630, 4-(4-Hydroxy-cyclohexylamino)-2-phenyl-7H-pyrrolo[2,3-d]pyrimidine-6-carboxylic Acid Amide] | 210 to 220 °C (dec.) | 
12 | CC(=O)NCCNc1nc(-c2ccccc2)nc2[nH]c(COc3ccccc3)cc12 [Example 17] | 196 to 197 °C | 
